Values joined by “and” are separate entries in the source; they are usually repeats but may differ in a detail not shown here. Equal entries are not always repeated.
Assays:
[1] = 101 kPa, Liquid
[2] = xn = mol fraction of the nth substance listed; conditions: 101 kPa, Liquid

CCCCO [butan-1-ol]
[1]
Conditions	mass density [kg/m3]	speed of sound [m/s]	viscosity [mPa·s]
293.15 K	809.5	1257	2.941
298.15 K	805.75	1240	2.571
303.15 K	801.8	1224	2.255

CCCCO [butan-1-ol] + CC1CCCC1
[2], x2 = 0
Conditions	speed of sound [m/s]
293.15 K	1257
298.15 K	1240
303.15 K	1224

CCC(C)O (stereo unspecified) [butan-2-ol]
[1]
Conditions	mass density [kg/m3]	speed of sound [m/s]	viscosity [mPa·s]
293.15 K	806.84	1230	3.623
298.15 K	802.72	1212	2.995
303.15 K	798.51	1194	2.493

CCC(C)O (stereo unspecified) [butan-2-ol] + CC1CCCC1
[2], x2 = 0
Conditions	speed of sound [m/s]
293.15 K	1230
298.15 K	1212
303.15 K	1194

CCO [ethanol]
[1]
Conditions	mass density [kg/m3]	speed of sound [m/s]	viscosity [mPa·s]
293.15 K	789.75	1162	1.187
298.15 K	785.46	1145	1.082
303.15 K	781.15	1128	0.987

CCO [ethanol] + CC1CCCC1
[2], x2 = 0
Conditions	mass density [kg/m3]	speed of sound [m/s]
293.15 K	789.75	1162
298.15 K	785.46	1145
303.15 K	781.15	1128

CC1CCCC1 [methylcyclopentane]
[1]
Conditions	mass density	speed of sound [m/s]	viscosity [mPa·s]
293.15 K	746.64 kg/m3	1197	0.504
298.15 K	741.94 kg/m3 and 741.9 kg/m3	1174	0.476
303.15 K	737.21 kg/m3	1150	0.45

CC1CCCC1 [methylcyclopentane] + CC(C)O
speed of sound [m/s], [2]
Conditions	293.15 K	298.15 K	303.15 K
x1 = 0.0478	1154	1136	1118
x1 = 0.1003	1152	1134	1115
x1 = 0.2092	1150	1130	1110
x1 = 0.2989	1150	1129	1108
x1 = 0.4151	1150	1129	1108
x1 = 0.4967	1152	1131	1109
x1 = 0.603	1156	1134	1111
x1 = 0.7118	1162	1140	1117
x1 = 0.8061	1170	1147	1124
x1 = 0.9026	1180	1157	1134
x1 = 0.9555	1187	1164	1141
x1 = 1	1197	1174	1150

CC1CCCC1 [methylcyclopentane] + CCC(C)O
speed of sound [m/s], [2]
Conditions	293.15 K	298.15 K	303.15 K
x1 = 0.0503	1223	1204	1186
x1 = 0.0966	1216	1198	1179
x1 = 0.198	1205	1185	1165
x1 = 0.3041	1194	1173	1153
x1 = 0.4088	1186	1164	1143
x1 = 0.5084	1180	1158	1137
x1 = 0.5961	1177	1155	1133
x1 = 0.7045	1176	1154	1132
x1 = 0.8151	1180	1157	1134
x1 = 0.9065	1185	1162	1139
x1 = 0.9532	1189	1166	1143
x1 = 1	1197	1174	1150

CC1CCCC1 [methylcyclopentane] + CCCC(C)O
speed of sound [m/s], [2]
Conditions	293.15 K	298.15 K	303.15 K
x1 = 0.0484	1244	1225	1206
x1 = 0.0999	1236	1217	1198
x1 = 0.1949	1223	1203	1183
x1 = 0.3177	1207	1187	1167
x1 = 0.4017	1198	1178	1157
x1 = 0.4945	1190	1169	1149
x1 = 0.6131	1184	1163	1141
x1 = 0.7107	1183	1161	1139
x1 = 0.815	1183	1161	1138
x1 = 0.9083	1187	1164	1141
x1 = 0.9535	1190	1167	1144
x1 = 1	1197	1174	1150

Source: the NIST ThermoML archive (doi:10.1016/j.jct.2005.12.010)
